GI50 and TGI data for 16 compounds are collected here from PubChem BioAssay (NCI).

Common to all, as to experiment: NCI-60 cell line screen, 48 h
Experiment [1] relates to HS 578T breast.
Experiment [2] deals with NCI/ADR-RES ovarian.
Experiment [3] concerns MDA-MB-231 breast.
Experiment [4] has as its system T-47D breast.
Experiment [5] has as its system BT-549 breast.
The subject of experiment [6] is MDA-N.
In experiment [7] the test system is MDA-MB-435.
The test system of experiment [8] is HOP-92 NSCLC.
The subject of experiment [9] is 786-0 renal.
Experiment [10] deals with M19-MEL melanoma.
Experiment [11] concerns SNB-78 CNS.

Each structure is given as a SMILES string. ≈ marks a conversion by molar mass, not a printed value.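 Step 1: Grow cells in 96-well plates. Step 2: Expose to compound for 48 hours at 5 concentrations. Step 3: Interpolate endpoints linearly; if unreached, use highest concentration. The concentration for 50% growth inhibition is given as GI50. TGI: concentration producing complete growth inhibition.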

For `CC1(C)CC(=O)C2=C(C1)NC(SSC1=C(C#N)C(c3ccc(F)cc3)C3=C(CC(C)(C)CC3=O)N1)=C(C#N)C2c1ccc(F)cc1` (stereo unspecified), the GI50 in [1] was 76.9 µg/mL (≈ 117 µM); in [2] it was 40.9 µg/mL (≈ 62.5 µM); in experiment [3], 29 µg/mL (≈ 44.2 µM); in experiment [4] it was 15 µg/mL (≈ 22.9 µM); in experiment [5], 30 µg/mL (≈ 45.8 µM); in experiment [6] it was 27.2 µg/mL (≈ 41.5 µM). In experiment [7], the GI50 was 26.2 µg/mL (≈ 40 µM). Besides, the TGI in experiment [1] is greater than 150 µg/mL; in experiment [2], 128 µg/mL; in experiment [3], 51.7 µg/mL; in experiment [4], 15 µg/mL; in experiment [5], 55.4 µg/mL; in experiment [6], 48.4 µg/mL. In experiment [7], this compound returned a TGI of 46.9 µg/mL.

For `N#CC(c1ccccc1)N1CCCN(C(C#N)c2ccccc2)C1c1ccccc1O` (stereo unspecified), the TGI in experiment [1], in experiment [2], in experiment [3], in experiment [4], in experiment [5] and in [6] was greater than 100 µM throughout. Moreover, the TGI in [8], in experiment [9] and in experiment [7] was greater than 100 µM throughout.

As to `Nc1ccc2c(c1)C(=O)N(O)C2=O`, the TGI in [10] and in experiment [11] was greater than 100 µM each time.

Regarding `O=C(O)C(CSC(c1ccccc1)(c1ccccc1)c1ccccc1)N=Cc1cccs1` (stereo unspecified), the TGI is greater than 34.2 µM in [1]; 63.8 µM in experiment [2]; 7.01 µM in [3]; greater than 100 µM in [4]; greater than 27.5 µM in experiment [5]; 1.94 µM in [6]. Also, the values for the TGI in experiment [8], in experiment [9] and in experiment [7] were greater than 84 µM, greater than 53.2 µM and 1.21 µM, respectively.

For `COC(=O)C1C(C)N1C` (stereo unspecified), the TGI in [10], in experiment [11] and in experiment [8] was greater than 100 µM throughout.

`O=C(CCN1CC2CCC(CC2)C1)c1cccs1`: the TGI in experiment [1] stood at 71.9 µM; in experiment [2] it was 62.1 µM; in [3], 34.4 µM; in experiment [4] it was 24.1 µM; in [5] it was 39 µM; in [6], 34.7 µM. The TGI in experiment [8] worked out at 12.6 µM; in experiment [9], 20.9 µM; in experiment [7], 42.3 µM.

`CCC(C)C1NC(=O)C2CCCN2C(=O)C(CC2CO2)OC(=O)CCNC(=O)C(C)N(C)C(=O)C(C(C)C)N(C)C1=O` (stereo unspecified): the TGI in [1], in experiment [2], in [3], in experiment [4], in [5] and in [8] was greater than 100 µM in each case. In [7], this compound had a TGI greater than 100 µM.

Take `CS(=O)(=O)c1nc(-c2cc3c(c(S(C)(=O)=O)n2)CCCC3)cc2c1CCCC2`: the TGI in experiment [1] is greater than 33 µM; in experiment [2], greater than 100 µM; in [3] it was greater than 100 µM; in [4] it was greater than 100 µM; in [5], greater than 82.2 µM; in experiment [6], greater than 100 µM. The TGI in experiment [9] and in [7] was greater than 100 µM throughout.

In the case of `C[C@]12CC[C@@H]3c4ccccc4CC[C@H]3[C@@H]1CC[C@@H]2O`, the TGI in experiment [10], in experiment [11] and in experiment [9] was greater than 100 µM throughout.

`O=S(=O)(O)c1cccc2c(N=Nc3c(O)ccc4ccccc34)cccc12`: the TGI in [1], in experiment [2], in [3], in experiment [4], in [5] and in experiment [6] was greater than 100 µM in each case. For the same compound, the TGI in [8], in [9] and in experiment [7] was greater than 100 µM each time.

In the case of `[O-][N+](CCO)(CCO)c1ncnc2nc[nH]c12`, the TGI in experiment [1], in experiment [2], in experiment [3], in [4], in experiment [5] and in experiment [6] was greater than 100 µM throughout. The TGI in experiment [9] and in experiment [7] was greater than 100 µM throughout.

Regarding `CN1C2CCC1C(C(O)c1ccccc1[N+](=O)[O-])C(=O)C2` (stereo unspecified), the TGI in [1] is greater than 100 µM; in experiment [2] it was 91.9 µM; in [3] it was greater than 100 µM; in [4], 87.7 µM; in [5], greater than 100 µM; in experiment [6], 75.7 µM. For the same compound, the TGI is greater than 100 µM in experiment [9] and 53 µM in experiment [7].

For `OCCOCn1cc(Cn2ncc3c(SCc4ccccc4)ncnc32)nn1`, the TGI in [1] is greater than 100 µM; in experiment [2], greater than 100 µM; in experiment [3], greater than 100 µM; in experiment [4], greater than 100 µM; in experiment [5], greater than 100 µM; in [6], 37 µM. Besides, the TGI is greater than 100 µM in [8], greater than 100 µM in experiment [9] and 35.1 µM in experiment [7].

Turning to `CC(Sc1ccccc1)C(CO)(CO)[N+](=O)[O-]` (stereo unspecified), the TGI in experiment [10] worked out at 30.9 µM; in experiment [11], 66.7 µM.

For `COc1ccc(/C=C(\C#N)c2nc(N)nc(N3N=C(C)CC3(C)C)n2)c(O)c1`, the TGI in [1] is 40 µM; in [2] it was 97.3 µM; in [3] it was 44.8 µM; in experiment [4] it was 34.5 µM; in [5] it was greater than 100 µM; in [8] it was 58.5 µM. The TGI in experiment [9] is 30 µM; in [7], 33.1 µM.

On to `CC(=O)N(C)c1ccc2c(ccc[n+]2[O-])c1[N+](=O)[O-]`, for which the TGI in experiment [10], in experiment [11] and in [9] was greater than 100 µM each time.
